# Measurements from US7862836B2, “Phosphorus binder for treatment of kidney disease” (Biolink Life Sciences, Inc., priority 2005, dated 2011).
# Like-named read-outs stand apart in the source and are kept apart here.
# How the values were obtained:
# [1] = mean of triplicate
# Procedure: The pH of each solution was adjusted to the desired value by the addition of concentrated hydrochloric acid or sodium hydroxide, as appropriate.
# The separation was performed on a Dionex AS11 Cation-Exchange HPLC column integrated with an Agilent Series 1100 HPLC system, and detection of the anionic species was enabled using a Dionex ED50 Electrochemical Detector, operating in Conductivity Mode. Limits of Detection and Quantitation were enhanced through the use of a Dionex Anion Self-Regenerating Suppressor. After assay-specific development and verification of assay performance were completed, the analysis of phosphate and succinate or acetate was performed by sampling the test solution and diluting it, if necessary, to a concentration within the linear range of the Assay. The sample was then injected onto the HPLC column and eluted with a sodium hydroxide gradient. Data were acquired using Agilent ChemStation® software.
# The test or control binder was dissolved in deionized water to a volume of 30 mL. The binder solution was added to the phosphorus solution to give a final volume of 600 mL. For each binder study, the phosphorus solutions were titrated by addition of concentrated HCl or NaOH to two different initial pH levels: 4 and 6. […] This was expressed as percent of the total phosphorus present in the original solution. […]
# [2] = Sheikh et al., cited from earlier work; for Observed in vitro Pi Binding, %: pH 6.0
# [3] = cited from earlier work; for Fractional phosphorus absorption / Net phosphorus absorption: mean ± SE
# [4] = Solubility in water of cationic phosphate binders (Table 1)
# Stability during storage = format: physicochemical
# [5] = 600 mg oral, cited from earlier work
# [6] = in many patients; cited from earlier work
# [7] = test system: parathyroid hormone (PTH) secretion; conditions: maintenance dialysis patients; cited from earlier work
# [8] = cited from earlier work
# [9] = cited from earlier work; remark: listed apart in the source
# [10] = hemodialysis or peritoneal dialysis patients; cited from earlier work
molecule,measurement,setting,value
O=C([O-])CCC(=O)[O-].[Ca+2] [Calcium Succinate],"Observed in vitro Pi Binding, %",[1]; pH 4.0,59.4%
same,"Observed in vitro Pi Binding, %",[1]; pH 6.0,94.0%
Calcium Gluconate,"Observed in vitro Pi Binding, %",[2],90%
O=C([O-])CC(O)(CC(=O)[O-])C(=O)[O-].O=C([O-])CC(O)(CC(=O)[O-])C(=O)[O-].[Ca+2].[Ca+2].[Ca+2] [Calcium Citrate],"Observed in vitro Pi Binding, %",[2],10%
same,Observed in vitro Pi Binding,[2]; pH 6.5,20% at pH 6.5 (NOTE 2)
Magnesium Acetate,fractional absorption of dietary Pi,"[3]; 50 mEq of the salt, reduced from 77%",34%
same,Pi absorption from ingesta,"[3]; 77 mEq per os, 75% with placebo, normal subjects",28%
same,fractional magnesium absorption,[3]; highest magnesium intake,11%
same,fractional magnesium absorption,[3]; lowest magnesium intake,65%
same,Fractional phosphorus absorption,[3]; standard meal + 10.2 mEq MgAc,55.8 ± 2.8 %
same,Net phosphorus absorption,[3]; standard meal + 10.2 mEq MgAc,7.5 ± 0.4 mmol
same,Fractional phosphorus absorption,[3]; standard meal + 19.4 mEq MgAc,47.1 ± 3.4 %
same,Net phosphorus absorption,[3]; standard meal + 19.4 mEq MgAc,6.3 ± 0.5 mmol
same,Fractional phosphorus absorption,[3]; standard meal + 39.0 mEq MgAc,37.0 ± 5.4^|| %
same,Net phosphorus absorption,[3]; standard meal + 39.0 mEq MgAc,4.8 ± 0.7^|| mmol
same,Fractional phosphorus absorption,[3]; standard meal + 77.2 mEq MgAc,28.1 ± 4.8^¶ %
same,Net phosphorus absorption,[3]; standard meal + 77.2 mEq MgAc,3.8 ± 0.6^¶ mmol
[O]=[Mg] [Magnesium Oxide],Hydrophile?,[4],No
O=C([O-])CCCC[C@@H]1CCSS1.O=C([O-])CCCC[C@@H]1CCSS1.[Mg+2] [magnesium (R)-(+)-lipoate],stability during storage,Stability during storage,stable during storage
O=C(O)CCCC[C@@H]1CCSS1 [(R)-(+)-lipoic acid],stability during storage,Stability during storage,even more unstable during storage
"O=C(O)CCCCC1CCSS1 (centres unmarked) [lipoic acid, 1,2-dithiolane-3-pentanoic acid]",safety when ingested by patients with kidney disease,[5],safe
same,"pharmacokinetics, influence of renal function",[5]; severely reduced kidney function or ESRD vs healthy,not influenced by creatinine clearance
same,stability during storage,Stability during storage,unstable during storage
[Mg+2].[OH-].[OH-] [Magnesium Hydroxide],severe hyperkalemia,[6],≤ 8 mEq/L
same,suppressing parathyroid hormone (PTH) secretion,[7],Neither the combination of oral calcium carbonate/magnesium hydroxide nor magnesium hydroxide alone was effective
same,serum Pi levels,"[8]; avg 734 mg elemental Mg/day, 3-5 weeks, control (no binders) 9.0 mg/dL",8.1 mg/dL
same,mean serum Mg levels,"[8]; avg 734 mg elemental Mg/day, dialysate Mg 1.2 to 1.8 mg/dl",4.32 mg/dL
same,patients who developed diarrhea,[8]; nine hemodialysis patients,Four of nine
same,serum Pi levels,"[9]; avg 991 mg elemental Mg daily, dialysate lacking Mg, rose from 4.3",6.1 mg/dL
same,serum Mg level (average),[9]; during Mg(OH)2 treatment,4.3 mg/dL
magnesium lipoate,stability during storage,Stability during storage,stable during storage
choline magnesium trisalicylate,effect on serum Pi levels,[10],no effect
